Data taken from patent US20230002397A1, “SMALL MOLECULE DEGRADERS OF HELIOS AND METODS OF USE” (DANA-FARBER CANCER INSTITUTE, INC., priority 2019, published 2023).

Biological target: T1, IKZF2 (Homo sapiens, UniProt Q96SW2+Q9UKS7)
T1 construct: CRISPR/Cas9—mediated insertion of the HiBiT peptide tag (Promega™) to the N-terminus of the IKZF2 gene locus; endogenous in cells; host or cells: MOLT4 cells, with CRISPR/Cas9 knock-in of HiBiT at the endogenous IKZF2 locus
Experiment: HiBit-IKZF2 assay (HiBiT-Helios degradation in MOLT4 cells)
Format: cell-based
Details: for Dmax: MOLT-4, extent of degradation from highest to lowest concentration, 10 μM to 0.00026 μM, read-out: Dmax; for DC50: concentration at which 50% of HiBiT-Helios degradation was achieved
In short: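 MOLT4 cells carried an endogenous N-terminal HiBiT tag on IKZF2, knocked in by CRISPR. Cells were treated in triplicate at 13 concentrations (10 μM–0.00026 μM), and remaining HiBiT-Helios was read by lytic luminescence at set timepoints. Data were normalized to DMSO to give the 50% degradation concentration, with Dmax taken from the luminescence range.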

T1 sequence (Q9UKS7 whole entry): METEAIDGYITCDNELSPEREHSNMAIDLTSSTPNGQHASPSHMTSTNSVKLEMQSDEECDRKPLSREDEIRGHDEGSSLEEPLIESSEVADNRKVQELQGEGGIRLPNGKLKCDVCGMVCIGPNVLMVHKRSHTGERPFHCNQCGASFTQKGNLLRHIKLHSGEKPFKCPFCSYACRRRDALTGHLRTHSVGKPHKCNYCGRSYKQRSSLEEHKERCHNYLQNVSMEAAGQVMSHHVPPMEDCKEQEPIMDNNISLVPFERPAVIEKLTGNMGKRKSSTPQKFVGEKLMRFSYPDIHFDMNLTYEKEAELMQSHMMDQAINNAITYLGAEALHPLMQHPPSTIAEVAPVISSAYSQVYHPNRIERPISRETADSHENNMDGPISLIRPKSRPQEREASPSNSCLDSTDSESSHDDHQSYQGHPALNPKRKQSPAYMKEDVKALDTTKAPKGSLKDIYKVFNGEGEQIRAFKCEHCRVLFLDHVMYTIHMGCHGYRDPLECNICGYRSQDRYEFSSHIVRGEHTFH
T1 sequence (Q96SW2 whole entry): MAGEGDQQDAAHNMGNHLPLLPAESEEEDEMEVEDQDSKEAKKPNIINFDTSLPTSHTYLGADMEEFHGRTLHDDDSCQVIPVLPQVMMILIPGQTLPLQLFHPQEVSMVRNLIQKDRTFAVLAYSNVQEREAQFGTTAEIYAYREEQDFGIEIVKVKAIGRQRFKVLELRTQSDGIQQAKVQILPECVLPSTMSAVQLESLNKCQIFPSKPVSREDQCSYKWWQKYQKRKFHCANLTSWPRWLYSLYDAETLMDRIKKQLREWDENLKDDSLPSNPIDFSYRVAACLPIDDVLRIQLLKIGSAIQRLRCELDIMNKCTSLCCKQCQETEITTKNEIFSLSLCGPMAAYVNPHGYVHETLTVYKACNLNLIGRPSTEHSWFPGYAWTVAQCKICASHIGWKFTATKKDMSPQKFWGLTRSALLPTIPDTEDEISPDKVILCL
T1 sequence (Q16531 whole entry partner): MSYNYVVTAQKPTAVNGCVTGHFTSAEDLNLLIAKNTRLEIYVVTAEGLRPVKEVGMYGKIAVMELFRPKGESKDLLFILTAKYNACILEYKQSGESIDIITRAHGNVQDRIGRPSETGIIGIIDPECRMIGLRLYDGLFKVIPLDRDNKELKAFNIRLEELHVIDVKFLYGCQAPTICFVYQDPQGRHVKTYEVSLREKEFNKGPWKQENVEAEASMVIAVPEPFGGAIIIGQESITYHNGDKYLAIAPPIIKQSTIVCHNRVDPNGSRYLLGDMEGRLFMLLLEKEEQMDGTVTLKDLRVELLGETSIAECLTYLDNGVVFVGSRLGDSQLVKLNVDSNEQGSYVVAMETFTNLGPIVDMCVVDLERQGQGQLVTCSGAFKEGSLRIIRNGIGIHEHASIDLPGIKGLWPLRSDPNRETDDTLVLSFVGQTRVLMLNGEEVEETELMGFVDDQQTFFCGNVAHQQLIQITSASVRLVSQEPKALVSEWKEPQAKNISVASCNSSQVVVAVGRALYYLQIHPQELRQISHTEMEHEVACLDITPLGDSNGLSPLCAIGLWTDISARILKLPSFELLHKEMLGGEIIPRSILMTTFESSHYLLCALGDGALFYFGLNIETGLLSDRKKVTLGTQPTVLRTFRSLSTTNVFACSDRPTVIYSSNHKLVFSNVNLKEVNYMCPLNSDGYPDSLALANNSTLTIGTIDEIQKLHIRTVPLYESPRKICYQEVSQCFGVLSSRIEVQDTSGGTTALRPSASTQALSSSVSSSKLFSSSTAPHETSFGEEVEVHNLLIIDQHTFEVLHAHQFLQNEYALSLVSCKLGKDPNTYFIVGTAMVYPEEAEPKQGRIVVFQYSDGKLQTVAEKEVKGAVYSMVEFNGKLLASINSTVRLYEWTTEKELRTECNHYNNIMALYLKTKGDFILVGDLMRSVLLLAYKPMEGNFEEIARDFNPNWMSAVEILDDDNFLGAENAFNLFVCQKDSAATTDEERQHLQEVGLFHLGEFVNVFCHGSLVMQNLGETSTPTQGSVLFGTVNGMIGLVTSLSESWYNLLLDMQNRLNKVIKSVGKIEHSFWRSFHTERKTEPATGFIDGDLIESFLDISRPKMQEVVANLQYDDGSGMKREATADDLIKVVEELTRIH

SMILES | Dmax | DC50
O=C1CCC(N2Cc3cc(C4(O)CCN(Cc5ccccc5OCc5ccccc5)CC4)ccc3C2=O)C(=O)N1 (stereo not drawn) [Compound 276] | 50 to 70% | < 10 nM
O=C1CCC(N2Cc3cc(C4(O)CCN(Cc5c(F)cccc5F)CC4)ccc3C2=O)C(=O)N1 (stereo not drawn) [Compound 245] | 50 to 70% | < 10 nM
O=C1CCC(N2Cc3cc(C4CCN(Cc5cccc(N6CCCCC6=O)c5)CC4)ccc3C2=O)C(=O)N1 (stereo not drawn) [Compound 161] | 30 to 50% | 10 to 30 nM
COc1ccccc1CN1CCC(O)(c2ccc3c(c2)CN(C2CCC(=O)NC2=O)C3=O)CC1 (stereo not drawn) [Compound 263] | > 70% | < 10 nM
O=C1CCC(N2Cc3cc(C4CCN(Cc5ccccc5)C(CO)C4)ccc3C2=O)C(=O)N1 (stereo not drawn) [Compound 212] | 50 to 70% | 30 to 150 nM
O=C1CCC(N2Cc3cc(C4(O)CCN(Cc5cccc(Oc6ccccc6)c5)CC4)ccc3C2=O)C(=O)N1 (stereo not drawn) [Compound 193] | > 70% | < 10 nM
